ChEMBL document CHEMBL4422679, “Unexpected equivalent potency of a constrained chromene enantiomeric pair rationalized by co-crystal structures in complex with estrogen receptor alpha” (Bioorg Med Chem Lett, 2019)

Legend:
[1] = system: Rattus norvegicus; experiment: In vivo antagonist activity at estrogen receptor in Sprague-Dawley rat assessed as reduction in ethynylestradiol-stimulated increase in uterine wet weight administered once daily via oral gavage for 3 days measured 24 hrs post last dose; assay type: functional, organism-based
[2] = system: MCF7; experiment: Antiproliferative activity against human MCF7 cells after 3 days by CellTiter-Glo luminescent cell viability assay; assay type: functional, cell-based
[3] = Oral bioavailability in Sprague-Dawley rat at 1 mg/kg; assay type: ADME, organism-based; conditions: in vivo
[4] = Clearance in Sprague-Dawley rat at 1 mg/kg, iv or 1 mg/kg, po; assay type: ADME, organism-based; conditions: in vivo
[5] = Octanol-buffer distribution coefficient, log D of the compound at pH 7.4; assay type: physicochemical
[6] = system: Rattus norvegicus; experiment: In vivo antagonist activity at estrogen receptor in Sprague-Dawley rat assessed as reduction in ethynylestradiol-stimulated increase in uterine wet weight at 10 mg/kg, po administered once daily via gavage for 3 days measured 24 hrs post last dose relative to control; assay type: functional; parameters: scale not given: the % may be the effect or the level left
[7] = system: Rattus norvegicus; experiment: In vivo antagonist activity at estrogen receptor in Sprague-Dawley rat assessed as reduction in ethynylestradiol-stimulated increase in uterine wet weight at 0.1 mg/kg, po administered once daily via gavage for 3 days measured 24 hrs post last dose relative to control; assay type: functional; parameters: scale not given: the % may be the effect or the level left
[8] = molecular target: T1, Estrogen receptor (Homo sapiens, UniProt P03372)
T1 sequence (P03372 whole entry): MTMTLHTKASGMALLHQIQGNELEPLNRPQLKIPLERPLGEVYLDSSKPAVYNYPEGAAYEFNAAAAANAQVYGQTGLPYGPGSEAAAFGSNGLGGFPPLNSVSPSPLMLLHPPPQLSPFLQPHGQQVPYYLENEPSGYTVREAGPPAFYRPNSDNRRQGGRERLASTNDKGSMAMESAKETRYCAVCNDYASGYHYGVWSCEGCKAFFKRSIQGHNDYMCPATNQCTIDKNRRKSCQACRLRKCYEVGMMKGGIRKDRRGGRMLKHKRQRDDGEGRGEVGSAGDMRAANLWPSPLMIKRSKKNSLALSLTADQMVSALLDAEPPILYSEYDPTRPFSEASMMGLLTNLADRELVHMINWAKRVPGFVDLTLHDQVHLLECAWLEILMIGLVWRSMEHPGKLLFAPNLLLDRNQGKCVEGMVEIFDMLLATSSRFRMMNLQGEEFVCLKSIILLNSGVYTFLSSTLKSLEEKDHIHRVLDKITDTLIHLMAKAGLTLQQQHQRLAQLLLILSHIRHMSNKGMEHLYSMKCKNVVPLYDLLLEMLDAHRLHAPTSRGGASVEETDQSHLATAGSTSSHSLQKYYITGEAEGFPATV
Description: Induction of ERalpha degradation in human MCF7 cells after 4 hrs by Alexafluor-488 conjugate anti-mouse IgG antibody/Hoechst 33342 staining based immunofluorescence imaging analysis

[9] = system: Rattus norvegicus; experiment: In vivo antagonist activity at estrogen receptor in Sprague-Dawley rat assessed as reduction in ethynylestradiol-stimulated increase in uterine wet weight at 60 mg/kg, po administered once daily via gavage for 3 days measured 24 hrs post last dose relative to control; assay type: functional; parameters: scale not given: the % may be the effect or the level left

| IC50 ([2]; Homo sapiens, MCF7, 72 h) | IC50 [8] | IC50 ([2]; mcf7) | Structure (SMILES) | other results |
| --- | --- | --- | --- | --- |
| 0.4 nM | – | – | Oc1ccc2c(c1)O[C@@H](c1ccc(OCCN3CC(CF)C3)cc1)C1=C2CCOc2cc(O)ccc21 | Activity [1]: Dose-dependent effect; bioavailability [3]: 3.2%; clearance [4]: 57 mL/min/kg; logD [5]: 3; Activity [6]: 87%; Activity [7]: 17% |
| 0.2 nM | – | – | C[C@@H](COc1ccc(C2Oc3cc(O)ccc3C3=C2c2ccc(O)cc2OCC3)cc1)N1CC[C@@H](CF)C1 (some centres not stated) | – |
| 0.9 nM | – | – | Oc1ccc2c(c1)O[C@H](c1ccc(OCCN3CC(CF)C3)cc1)C1=C2CCOc2cc(O)ccc21 | logD [5]: 3.2 |
| 0.3 nM | – | – | Oc1ccc2c(c1)OC(c1ccc(OCCN3CC[C@@H](CF)C3)cc1)C1=C2CCOc2cc(O)ccc21 (some centres not stated) | – |
| 1.2 nM | 0.28 nM | – | Oc1ccc2c(c1)OC(c1ccc(OCCN3CCCCC3)cc1)C1=C2CCOc2cc(O)ccc21 (racemic) | – |
| 0.7 nM | – | – | Oc1ccc2c(c1)OC(c1ccc(OCCN3CC(CF)C3)cc1)C1=C2CCOc2cc(O)ccc21 (racemic) | – |
| – | – | 0.3 nM | Oc1ccc2c(c1)OCCC1=C2C(c2ccc(OCCN3CC(CF)C3)cc2)Oc2ccc(O)cc21 (stereo in doubt; 17a) | – |
| 0.6 nM | – | – | Oc1ccc2c(c1)OCCC1=C2C(c2ccc(OCCN3CC(CF)C3)cc2)Oc2ccc(O)cc21 (stereo in doubt; 17b) | clearance [4]: 237 mL/min/kg; logD [5]: 2.7 |
| – | 0.61 nM | 5 nM | Oc1ccc2c(c1)OC(c1ccc(OCCN3CC(CF)C3)cc1)C1=C2CCOc2ccc(O)cc21 (stereo in doubt; 18a) | – |
| – | 9.6 nM | 20 nM | Oc1ccc2c(c1)OC(c1ccc(OCCN3CC(CF)C3)cc1)C1=C2CCOc2ccc(O)cc21 (stereo in doubt; 18b) | – |
| – | 0.24 nM | 0.8 nM | Oc1ccc2c(c1)C1=C(c3cc(O)ccc3OCC1)C(c1ccc(OCCN3CC(CF)C3)cc1)O2 (stereo in doubt; 19a) | – |
| – | 3.2 nM | 10 nM | Oc1ccc2c(c1)C1=C(c3cc(O)ccc3OCC1)C(c1ccc(OCCN3CC(CF)C3)cc1)O2 (stereo in doubt; 19b) | – |
| – | – | – | CC/C(=C(\c1ccccc1)c1ccc(OCCN(C)C)cc1)c1ccccc1 [TAMOXIFEN] | Activity [9]: 36% |

| Structure (SMILES) | IC50 ([2]; Homo sapiens, MCF7, 72 h) | IC50 [8] | IC50 ([2]; mcf7) | other results |
| --- | --- | --- | --- | --- |
| CC1=C(c2cccc(O)c2)[C@H](c2ccc(OCCN3CC(CF)C3)cc2)Oc2ccc(O)cc21 | 0.2 nM | – | – | bioavailability [3]: 16%; clearance [4]: 85 mL/min/kg; logD [5]: 2.9; Activity [6]: 105.7% |
